Assay results reported in patent publication EP0313981A2, “3-(4-Chlorphenyl)-2,2-dimethyl-3-hydroxy-4-(1,2,4-triazol-1-yl)-butyronitril” (BAYER AG, priority 1987, dated 1989).
≈ marks a conversion by molar mass, not a printed value.

Tests used:
Asper-gillus fumi-gatus = assay: Antifungal in vitro activity (MIC), Kimmig medium; format: cell-based; details: Aspergillus fumigatus, inoculum 5 x 10³ Keime/ml, 28 °C, 96 h, read-out: MHK-Werte (minimale Hemmkonzentration)
Description: (§1) Die in-vitro-Prüfungen wurden mit Keiminokula von durchschnittlich 5 x 10³ Keimen/ml Substrat durchgeführt. Als Nährmedium diente Kimmig-Medium.
(§2) Die Bebrütungstemperatur betrug 28 °C, die Bebrütungsdauer lag bei 24 bis 96 Stunden bei Hefen und 96 Stunden bei Dermatophyten und Schimmelpilzen.

Micro-sporum canis = assay: Antifungal in vitro activity (MIC), Kimmig medium; format: cell-based; details: Microsporum canis, inoculum 5 x 10³ Keime/ml, 28 °C, 96 h, read-out: MHK-Werte (minimale Hemmkonzentration)
Description: as §1, §2

Tricho-phyton mentagr. = assay: Antifungal in vitro activity (MIC), Kimmig medium; format: cell-based; details: Trichophyton mentagrophytes, inoculum 5 x 10³ Keime/ml, 28 °C, 96 h, read-out: MHK-Werte (minimale Hemmkonzentration)
Description: as §1, §2

[1] = tested on: Candida albi-cans und sp.; assay: Antifungal in vitro activity (MIC), Kimmig medium; format: cell-based, Candida albicans; details: inoculum 5 x 10³ Keime/ml, 28 °C, 24 to 96 h, read-out: MHK-Werte (minimale Hemmkonzentration)
Description: as §1, §2

Toru-lopsis gla-brata = assay: Antifungal in vitro activity (MIC), Kimmig medium; format: cell-based, Torulopsis glabrata; details: Nakaseomyces glabratus, inoculum 5 x 10³ Keime/ml, 28 °C, 24 to 96 h, read-out: MHK-Werte (minimale Hemmkonzentration)
Description: as §1, §2

Candida-Zellen = assay: Antifungal in vivo activity (oral) in mouse candidiasis; set-up: species or system Mäuse vom Typ SPF-CF₁; details: 2 x 5,0 mg/kg per day for 5 days; for Wirkung: mice infected i.v. with 1 x 10⁶ Candida cells, survivors on day 6 p.i.; for Wirkung (in words): mouse candidiasis
Description: Mäuse vom Typ SPF-CF₁ werden intravenös mit 1 x 10⁶ logarithmisch wachsenden Candida-Zellen, die in physiologischer Kochsalzlösung suspendiert wurden, infiziert, Gleichzeitig mit der Infektion werden die Tiere mit jeweils 5,0 mg/kg Körpergewicht der Präparate oral behandelt.
Die Behandlung wird 5 Tage fortgesetzt; die Tagesdosis beträgt jeweils 2 mal 5,0 mg/kg Körpergewicht.
Unbehandelte Tiere sterben 3 bis 6 Tage post infektionem. Die Überlebensrate am 6.Tag post infektionem beträgt bei unbehandelten Kontrolltieren etwa 5 %.

[2] = tested on: Trichophyton mentagrophytes; assay: Antimicrobial in vivo activity (oral) in experimental guinea pig trichophytosis; set-up: species or system Meerschweinchen der Rasse Pirbright-white; key to Wirkung: +++++: = sehr gute Wirkung = keine Infektionszeichen am 12. bis 15. Tag p.i.; ++++: = gute Wirkung = geringe Rötung, vereinzelt Schuppen; +++: = Wirkung = Rötung, Schuppen ohne Haarausfall; ++: = schwache Wirkung = Rötung, Schuppen, Haaraus-fall; +: = Spurwirkung = flächiger Haarausfall, entzündliche Hautreaktion; k.w.: = keine Wirkung = kein Unterschied zur unbehandelten Kontrolle; details: 1 x 2,5 mg/kg per day for 10 days; for Wirkung (in words): guinea pig trichophytosis; for Wirkung: guinea pigs infected on the back with Trichophyton mentagrophytes, signs of infection day 12 to 15 p.i.
Description: Weiße Meerschweinchen der Rasse Pirbright-white werden auf dem geschorenen, nicht skarifizierten Rücken mit einer Mikro- und Makrokonidien-Suspension von Trichophyton mentagrophytes infiziert.
Die infizierten Tiere werden beginnend mit dem Tag der Infektion 1 x täglich mit 2,5 mg/kg Körpergewicht der Präparate oral behandelt. Die Behandlung wird 10 Tage fortgesetzt; die Tagesdosis beträgt jeweils 1 mal 2,5 mg/kg Körpergewicht.
Bei unbehandelten Tieren entwickelt sich innerhalb von 12 Tagen p.i. das typische Bild einer Dermatophytose mit Rötung, Schuppung und Haarausfall bis zum totalen Integument-Defekt an der Infektionsstelle.

MIC (Asper-gillus fumi-gatus)	MIC (Micro-sporum canis)	MIC (Tricho-phyton mentagr.)	MIC [1]	MIC (Toru-lopsis gla-brata)	Structure (SMILES)	Wirkung (Candida-Zellen)	Wirkung (in words) (Candida-Zellen)	Wirkung (in words) [2]	Wirkung [2]
64 µg/mL (≈ 220 µM)	4 to 8 µg/mL (≈ 13.8 to 27.5 µM)	4 to 8 µg/mL (≈ 13.8 to 27.5 µM)	4 to 8 µg/mL (≈ 13.8 to 27.5 µM)	32 to 64 µg/mL (≈ 110 to 220 µM)	CC(C)(C#N)C(O)(Cn1cncn1)c1ccc(Cl)cc1 (stereo not drawn) [(I), 3-(4-Chlorphenyl)-2,2-dimethyl-3-hydroxy-4-(1,2,4-triazol-1-yl)-butyronitril]	++++ (= gute Wirkung = 80 % Überlebende am 6.Tag.p.i.)	gute Wirkung	gute Wirkung	++++
64 µg/mL (≈ 231 µM)	32 µg/mL (≈ 116 µM)	32 µg/mL (≈ 116 µM)	16 to 32 µg/mL (≈ 57.8 to 116 µM)	64 µg/mL (≈ 231 µM)	CC(C#N)C(O)(Cn1cncn1)c1ccc(Cl)cc1 (stereo not drawn) [(A), 3-(4-Chlorphenyl)-3-hydroxy-2-methyl-4-(1,2,4-triazol-1-yl)-butyronitril]	k.w.	keine Wirkung	keine Wirkung	k.w.
